Measured values: paper PMC10449621, “Engineering cellular communication between light-activated synthetic cells and bacteria” (Nature Chemical Biology, 2023)
Where “and” joins values, the source holds several entries; their conditions need not be identical. Equal values may be shown once. Entries after “also recorded” stand apart in the source; their conditions may differ.

Legend:
Experiment in all cases: BjaR receiver cell AHSL dose-response (gfp reporter, plate reader)
Format in all cases: cell-based, E. coli XL10-Gold
[1] = tested on: BjaRKO receiver cells (pSB1A3–bjaRKO–gfp)
Description: Next, we set out to establish a unidirectional communication pathway by reconstituting the BjaI and BjaR QS machinery, separately, within synthetic cells and E. coli, respectively. As a starting point, IV-HSL-responsive receiver cells were created by transforming E. coli XL10-Gold cells with a reporter plasmid, pSB1A3–bjaR–gfp[28]. This plasmid contained a bjaR gene under the control of a constitutively active J23100 promoter and a gfp gene under the control of a pBjaR promoter. The pBjaR promoter was formed by substituting the lux-box of the pLux promoter with the BjaR-binding site (Supplementary Fig. 10). […] Although this reporter plasmid had been characterized previously, gfp expression was initiated with C4-HSL rather than the cognate ligand, IV-HSL. Thus, we first evaluated the dose–response relationship between synthetic IV-HSL (synthesis described in Methods) and GFP production by BjaR receiver cells. The cells were grown in M9 minimal media to an optical density at 600 nm (OD600) = 0.05, then transferred to a 96-well plate containing IV-HSL and incubated at 37 °C, 800 r.p.m., for 4 h. […] To elucidate the root cause of the high background fluorescence, a BjaRKO variant of the reporter plasmid was constructed. […] Therefore, the high OFF-state was attributed to BjaR-mediated transcription activation in the absence of IV-HSL, rather than host transcription factors recognizing the pBjaR promoter, or transcription factor independent gfp expression.
(§1) The BjaR reporter plasmids were retransformed into E. coli XL10-Gold cells for each experiment. A single colony was used to inoculate 5 ml LB + Amp media and incubated at 37 °C, 225 r.p.m. overnight. Overnight cultures were diluted 1/250 or 1/500 in 5 ml M9 minimal media + Amp and incubated at 37 °C, 225 r.p.m. for 3 h and 45 min (until OD600 = ~0.075). Cultures were diluted down to OD600 = 0.05 with M9 minimal media + Amp, and 200 µl was added to wells of a 96-well plate containing 1 µl IV-HSL dissolved in DMSO or 1 µl BjaI CFPS reactions (IV-HSL concentrations obtained from serial dilution from 63.2 µM to 632 pM; final DMSO concentration = 0.5%). Cells were incubated at 37 °C, 800 r.p.m., in a thermomixer with a heated lid for 4 h. Fluorescence and OD600 were measured in a Tecan M1000 infinite plate reader (excitation, 488 nm; emission, 510 nm; bandwidth, 5 nm; gain, 101 and z position, 21,311 µm). The dose–response curves were fitted to the function indicated by Eq. (1), where a = maximal fluorescence output, b = basal fluorescence output, X = concentration of AHSL, GFP = fluorescence at the given condition, EC50 = AHSL at 50% maximal fluorescence output and h = hill coefficient. EC50 and h were derived using the nonlinear regression model based on Eq. (1), in MATLAB. A summary of the dose–response data is available in Supplementary Table 1.1 GFP=b+a−b/1+10^logEC50−X×h

[2] = tested on: BjaRS107R (B0034|CTG) receiver cells
Method: (§2) After four rounds of random mutagenesis, ON-selection and outgrowth, the OFF- and ON-states of 45 BjaR variants were screened by measuring their GFP fluorescence in the absence and presence of 1 nM IV-HSL. […] To understand the true impact of these mutations on receiver cell performance, the bjaRS107R (CTG) and bjaRWT (ACG) genes were cloned back into the reporter plasmid backbone without kanR.
as §1

[3] = tested on: BjaRWT (B0034|ACG) receiver cells
Method: as §2, §1

[4] = Escherichia coli, IV-HSL-activated gfp expression

In the case of `CC(C)CC(=O)N[C@H]1CCOC1=O` [IV-HSL, N-isovaleryl-L-homoserine lactone], the “gfp expression in presence of IV-HSL” value ([1]; BjaR knocked out) is reported as “completely ablated gfp expression; also recorded: minimal gfp expression”, the GFP ([1]; Log([ASHL]) -6.5) is reported as 184 and 176 and 173 and the Mean normalised fluorescence ([1]; Log([ASHL]) -6.5) is reported as 361.621. For the same compound, the Normalised fluorescence ([1]; Log([ASHL]) -6.5) was 365.437 and 317.314 and 402.112, the GFP ([1]; Log([ASHL]) -7) was 173 and 168 and 165 and the Mean normalised fluorescence ([1]; Log([ASHL]) -7) was 321.731. The Normalised fluorescence ([1]; Log([ASHL]) -7) was 319.68 and 293.754 and 351.759, the GFP ([1]; Log([ASHL]) -7.5) was 177 and 169 and 166 and the Mean normalised fluorescence ([1]; Log([ASHL]) -7.5) was 323.42. For the same compound, the Normalised fluorescence ([1]; Log([ASHL]) -7.5) was 331.126 and 287.856 and 351.279, the GFP ([1]; Log([ASHL]) -8) was 168 and 166 and 175 and the Mean normalised fluorescence ([1]; Log([ASHL]) -8) was 329.861. The Normalised fluorescence ([1]; Log([ASHL]) -8) was 292.758 and 367.412 and 329.412, the GFP ([1]; Log([ASHL]) -8.5) was 168 and 165 and 177 and the Mean normalised fluorescence ([1]; Log([ASHL]) -8.5) was 326.491. For the same compound, the Normalised fluorescence ([1]; Log([ASHL]) -8.5) was 291.054 and 362.261 and 326.158, the GFP ([1]; Log([ASHL]) -9) was 165 and 164 and 177 and the Mean normalised fluorescence ([1]; Log([ASHL]) -9) was 335.395. The Normalised fluorescence ([1]; Log([ASHL]) -9) was 295.725 and 362.027 and 348.432, the GFP ([1]; Log([ASHL]) -9.5) was 164 and 162 and 172 and the Mean normalised fluorescence ([1]; Log([ASHL]) -9.5) was 325.095. For the same compound, the Normalised fluorescence ([1]; Log([ASHL]) -9.5) was 293.548 and 346.048 and 335.689, the GFP ([1]; Log([ASHL]) -10) was 163 and 162 and 171 and the Mean normalised fluorescence ([1]; Log([ASHL]) -10) was 332.521. For the same compound, the Normalised fluorescence ([1]; Log([ASHL]) -10) was 290.698 and 371.151 and 335.714, the GFP ([1]; Log([ASHL]) -10.5) was 166 and 164 and 173 and the Mean normalised fluorescence ([1]; Log([ASHL]) -10.5) was 338.795. The Normalised fluorescence ([1]; Log([ASHL]) -10.5) was 301.85 and 369.458 and 345.075, the GFP ([1]; Log([ASHL]) -11) was 163 and 161 and 171 and the Mean normalised fluorescence ([1]; Log([ASHL]) -11) was 330.063. The Normalised fluorescence ([1]; Log([ASHL]) -11) was 296.053 and 361.746 and 332.39, the GFP ([1]; Log([ASHL]) -11.5) was 165 and 174 and 162 and the Mean normalised fluorescence ([1]; Log([ASHL]) -11.5) was 344.578. The Normalised fluorescence ([1]; Log([ASHL]) -11.5) was 307.076 and 352.984 and 373.673, the EC50 [2, 4] was 0.44 ± 0.04 nM and the GFP ([2]; Log([ASHL]) -6.5) was 37925 and 45810 and 36660. For the same compound, the Mean normalised fluorescence ([2]; Log([ASHL]) -6.5) was 184153, the Normalised fluorescence ([2]; Log([ASHL]) -6.5) was 205027 and 170089 and 177344 and the GFP ([2]; Log([ASHL]) -7) was 36122 and 43880 and 35340. The Mean normalised fluorescence ([2]; Log([ASHL]) -7) was 165547, the Normalised fluorescence ([2]; Log([ASHL]) -7) was 185321 and 153601 and 157719 and the GFP ([2]; Log([ASHL]) -7.5) was 35735 and 43795 and 35365. The Mean normalised fluorescence ([2]; Log([ASHL]) -7.5) was 163310, the Normalised fluorescence ([2]; Log([ASHL]) -7.5) was 180638 and 151602 and 157690 and the GFP ([2]; Log([ASHL]) -8) was 43912 and 35147 and 35505. For the same compound, the Mean normalised fluorescence ([2]; Log([ASHL]) -8) was 161376, the Normalised fluorescence ([2]; Log([ASHL]) -8) was 150185 and 151700 and 182243 and the GFP ([2]; Log([ASHL]) -8.5) was 44967 and 35318 and 37269. The Mean normalised fluorescence ([2]; Log([ASHL]) -8.5) was 147580, the Normalised fluorescence ([2]; Log([ASHL]) -8.5) was 140866 and 144147 and 157727 and the GFP ([2]; Log([ASHL]) -9) was 41968 and 33264 and 37415. For the same compound, the Mean normalised fluorescence ([2]; Log([ASHL]) -9) was 127915, the Normalised fluorescence ([2]; Log([ASHL]) -9) was 124650 and 118620 and 140474 and the GFP ([2]; Log([ASHL]) -9.5) was 22707 and 17817 and 19857. The Mean normalised fluorescence ([2]; Log([ASHL]) -9.5) was 69560.7, the Normalised fluorescence ([2]; Log([ASHL]) -9.5) was 65949.9 and 69200.5 and 73531.6 and the GFP ([2]; Log([ASHL]) -10) was 5295 and 3943 and 4882. For the same compound, the Mean normalised fluorescence ([2]; Log([ASHL]) -10) was 15714.4, the Normalised fluorescence ([2]; Log([ASHL]) -10) was 15242.3 and 14666.4 and 17234.6 and the GFP ([2]; Log([ASHL]) -10.5) was 1534 and 1232 and 1622. The Mean normalised fluorescence ([2]; Log([ASHL]) -10.5) was 4749.74, the Normalised fluorescence ([2]; Log([ASHL]) -10.5) was 4305.92 and 4298.44 and 5644.87 and the GFP ([2]; Log([ASHL]) -11) was 1122 and 884 and 1057. The Mean normalised fluorescence ([2]; Log([ASHL]) -11) was 3184.98, the Normalised fluorescence ([2]; Log([ASHL]) -11) was 3030.92 and 3019.01 and 3505.01 and the GFP ([2]; Log([ASHL]) -11.5) was 784 and 731 and 617. For the same compound, the Mean normalised fluorescence ([2]; Log([ASHL]) -11.5) was 2156.19, the Normalised fluorescence ([2]; Log([ASHL]) -11.5) was 2102.93 and 2315.04 and 2050.6 and the “fold activation of gfp expression” value ([2]; with vs without IV-HSL) was ~ 88 fold. For the same compound, the EC50 [3, 4] was 22.3 ± 2.59 nM, the GFP ([3]; Log([ASHL]) -6.5) was 41705 and 34148 and 40466 and the Mean normalised fluorescence ([3]; Log([ASHL]) -6.5) was 152634. The GFP ([3]; Log([ASHL]) -7) was 36443 and 32999 and 38903, the Mean normalised fluorescence ([3]; Log([ASHL]) -7) was 132540 and the GFP ([3]; Log([ASHL]) -7.5) was 26920 and 30479 and 35001. The Mean normalised fluorescence ([3]; Log([ASHL]) -7.5) was 111442, the GFP ([3]; Log([ASHL]) -8) was 23596 and 24216 and 12337 and the Mean normalised fluorescence ([3]; Log([ASHL]) -8) was 70550.8. It also gave a Mean normalised fluorescence ([3]; Log([ASHL]) -8.5) of 28355.7, a Mean normalised fluorescence ([3]; Log([ASHL]) -9) of 6838.99 and a Mean normalised fluorescence ([3]; Log([ASHL]) -9.5) of 1496.47. For the same compound, the GFP ([3]; Log([ASHL]) -10) was 268 and 258 and 219, the Mean normalised fluorescence ([3]; Log([ASHL]) -10) was 638.735 and the GFP ([3]; Log([ASHL]) -10.5) was 198 and 199 and 217. The Mean normalised fluorescence ([3]; Log([ASHL]) -10.5) was 483.533, the GFP ([3]; Log([ASHL]) -11) was 195 and 198 and 217 and the Mean normalised fluorescence ([3]; Log([ASHL]) -11) was 487.314. For the same compound, the GFP ([3]; Log([ASHL]) -11.5) was 199 and 225 and 193, the Mean normalised fluorescence ([3]; Log([ASHL]) -11.5) was 497.83 and the “fold activation of gfp expression” value ([3]; with vs without IV-HSL) was ~ 309 fold.
